Each structure is given as a SMILES string.

Among the data in patent US20230192705A1, “SHP2 INHIBITORS, COMPOSITIONS AND USES THEREOF” (Betta Pharmaceuticals Co., Ltd, priority 2020, published 2023) are IC50 values, retold here.

The target of the experiment is T1, SHP2 (Homo sapiens, UniProt Q06124).
T1 sequence (Q06124 1-593): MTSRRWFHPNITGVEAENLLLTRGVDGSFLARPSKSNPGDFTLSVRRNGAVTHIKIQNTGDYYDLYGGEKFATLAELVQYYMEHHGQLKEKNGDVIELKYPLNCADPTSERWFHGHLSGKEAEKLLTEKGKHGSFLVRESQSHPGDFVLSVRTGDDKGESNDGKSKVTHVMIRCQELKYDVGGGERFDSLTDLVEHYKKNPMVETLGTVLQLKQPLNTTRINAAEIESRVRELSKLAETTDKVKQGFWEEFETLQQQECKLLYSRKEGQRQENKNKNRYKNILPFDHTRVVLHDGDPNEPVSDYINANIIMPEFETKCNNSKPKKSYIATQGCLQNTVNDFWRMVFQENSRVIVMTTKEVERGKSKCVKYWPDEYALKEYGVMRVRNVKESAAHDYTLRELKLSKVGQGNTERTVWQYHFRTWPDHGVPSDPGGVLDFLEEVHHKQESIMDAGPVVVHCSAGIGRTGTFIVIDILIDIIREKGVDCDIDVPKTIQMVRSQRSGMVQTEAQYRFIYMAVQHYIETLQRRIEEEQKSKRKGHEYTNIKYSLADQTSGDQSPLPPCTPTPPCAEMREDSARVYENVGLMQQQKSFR
Put plainly: SHP2 allosteric inhibitor enzyme activity assay (DiFMUP fluorescence). It counts as biochemical. The note with it: class symbols. Put shortly: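 SHP2 activated by 0.5 μM IRS1_pY1172(dPEG8)pY1222 peptide, 0.2 ng enzyme per well, 1 h at room temperature with compound (1 μM top, 3-fold series), then DiFMUP substrate 1 h. Buffer: 60 mM HEPES, 75 mM NaCl, 75 mM KCl, 0.05% BRIJ-35, 1 mM EDTA, 5 mM DTT. Fluorescence ex 340/em 450 nm; IC50 by variable-slope fit.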
The term IC50 denotes the concentration that inhibits the measured activity by half. Low values mean inhibition by little substance, high ones a need for much substance. In turn, `N[C@@H]1c2ccccc2CC12CCN(c1nc3[nH]nc(C4=CCCc5nc(C(F)(F)F)cc(C(F)(F)F)c54)c3c(=O)[nH]1)CC2` [Example 137, (S)-6-(1-amino-1,3-dihydrospiro[indene-2,4′-piperidin]-1′-yl)-3-(2,4-bis(trifluoromethyl)-7,8-dihydroquinolin-5-yl)-1,5-dihydro-4H-pyrazolo[3,4-d]pyrimidin-4-one] displayed an IC50 of 20 to 60 nM.

For the compound `N[C@@H]1c2ccccc2CC12CCN(c1nc3[nH]nc(C4=CCCc5ncc(C(F)(F)F)cc54)c3c(=O)[nH]1)CC2` [Example 138, (S)-6-(1-amino-1,3-dihydrospiro[indene-2,4′-piperidin]-1′-yl)-3-(3-(trifluoromethyl)-7,8-dihydroquinolin-5-yl)-1,5-dihydro-4H-pyrazolo[3,4-d]pyrimidin-4-one], the IC50 fell in the range of 20 to 60 nM.

As for `Cc1cc(C(F)(F)F)c2c(n1)CCC=C2c1n[nH]c2nc(N3CCC4(CC3)Cc3ccccc3[C@H]4N)[nH]c(=O)c12` [Example 140, (S)-6-(1-amino-1,3-dihydrospiro[indene-2,4′-piperidin]-1′-yl)-3-(2-methyl-4-(trifluoromethyl)-7,8-dihydroquinolin-5-yl)-1,5-dihydro-4H-pyrazolo[3,4-d]pyrimidin-4-one], the IC50 was in the range of 20 to 60 nM.

Turning to `N[C@@H]1c2ccccc2CC12CCN(c1nc3[nH]nc(C4=CCCc5nc(C6CC6)cc(C(F)(F)F)c54)c3c(=O)[nH]1)CC2` [Example 141, (S)-6-(1-amino-1,3-dihydrospiro[indene-2,4′-piperidin]-1′-yl)-3-(2-cyclopropyl-4-(trifluoromethyl)-7,8-dihydroquinolin-5-yl)-1,5-dihydro-4H-pyrazolo[3,4-d]pyrimidin-4-one], the IC50 lay in the range of 20 to 60 nM.

With `Cc1cc(C(F)F)c2c(n1)CCC=C2c1n[nH]c2nc(N3CCC4(CC3)Cc3ccccc3[C@H]4N)[nH]c(=O)c12` [Example 142, (S)-6-(1-amino-1,3-dihydrospiro[indene-2,4′-piperidin]-1′-yl)-3-(4-(difluoromethyl)-2-methyl-7,8-dihydroquinolin-5-yl)-1,5-dihydro-4H-pyrazolo[3,4-d]pyrimidin-4-one], the IC50 was in the range of 20 to 60 nM.

`CC1(C)C=C(c2n[nH]c3nc(N4CCC5(CC4)Cc4ccccc4[C@H]5N)[nH]c(=O)c23)c2cccnc2C1` [Example 143, (S)-6-(1-amino-1,3-dihydrospiro[indene-2,4′-piperidin]-1′-yl)-3-(7,7-dimethyl-7,8-dihydroquinolin-5-yl)-1,5-dihydro-4H-pyrazolo[3,4-d]pyrimidin-4-one]: the 50% inhibitory concentration (IC50) was not above 20 nM.

`CC1(C)CC=C(c2n[nH]c3nc(N4CCC5(CC4)Cc4ccccc4[C@H]5N)[nH]c(=O)c23)c2ccc(C(F)(F)F)nc21` [Example 145, (S)-6-(1-amino-1,3-dihydrospiro[indene-2,4′-piperidin]-1′-yl)-3-(8,8-dimethyl-2-(trifluoromethyl)-7,8-dihydroquinolin-5-yl)-1,5-dihydro-4H-pyrazolo[3,4-d]pyrimidin-4-one] gave an IC50 not above 20 nM.

`CC1(C)C=C(c2n[nH]c3nc(N4CCC5(CC4)Cc4ccccc4[C@H]5N)[nH]c(=O)c23)c2cnc(C(F)(F)F)nc2C1` [Example 146, (S)-6-(l-amino-1,3-dihydrospiro[indene-2,4'-piperidin]-1′-yl)-3-(7,7-dimethyl-2-(trifluoromethyl)-7,8-dihydroquinazolin-5-yl)-1,5-dihydro-4H-pyrazolo[3,4-d]pyrimidin-4-one]: the IC50 is not above 20 nM.

`Cc1ncc2c(n1)CC(C)(C)C=C2c1n[nH]c2nc(N3CCC4(CC3)Cc3ccccc3[C@H]4N)[nH]c(=O)c12` [Example 147, (S)-6-(l-amino-1,3-dihydrospiro[indene-2,4'-piperidin]-1′-yl)-3-(2,7,7-trimethyl-7,8-dihydroquinazolin-5-yl)-1,5-dihydro-4H-pyrazolo[3,4-d]pyrimidin-4-one] yielded an IC50 not above 20 nM.

`CC1(C)C=C(c2n[nH]c3nc(N4CCC5(CC4)Cc4ccccc4[C@H]5N)[nH]c(=O)c23)c2cnc(C3CC3)nc2C1` [Example 148, (S)-6-(l-amino-1,3-dihydrospiro[indene-2,4'-piperidin]-1′-yl)-3-(2-cyclopropyl-7,7-dimethyl-7,8-dihydroquinazolin-5-yl)-1,5-dihydro-4H-pyrazolo[3,4-d]pyrimidin-4-one] returned an IC50 of 20 to 60 nM.

With `CNc1ncc2c(n1)CC(C)(C)C=C2c1n[nH]c2nc(N3CCC4(CC3)Cc3ccccc3[C@H]4N)[nH]c(=O)c12` [Example 149, (S)-6-(1-amino-1,3-dihydrospiro[indene-2,4′-piperidin]-1′-yl)-3-(7,7-dimethyl-2-(methylamino)-7,8-dihydroquinazolin-5-yl)-1,5-dihydro-4H-pyrazolo[3,4-d]pyrimidin-4-one], the IC50 was not above 20 nM.

With `Cn1ncc2c1CC(C)(C)C=C2c1n[nH]c2nc(N3CCC4(CC3)Cc3ccccc3[C@H]4N)[nH]c(=O)c12` [Example 150, (S)-6-(1-amino-1,3-dihydrospiro[indene-2,4′-piperidin]-1′-yl)-3-(1,6,6-trimethyl-6,7-dihydro-1H-indazol-4-yl)-1,5-dihydro-4H-pyrazolo[3,4-d]pyrimidin-4-one], the IC50 is not above 20 nM.

Compound `CC1(C)C=C(c2n[nH]c3nc(N4CCC5(CC4)Cc4ccccc4[C@H]5N)[nH]c(=O)c23)c2cnn(CC(F)(F)F)c2C1` [Example 151, (S)-6-(1-amino-1,3-dihydrospiro[indene-2,4′-piperidin]-1′-yl)-3-(6,6-dimethyl-l-(2,2,2-trifluoroethyl)-6,7-dihydro-1H-indazol-4-yl)-1,5-dihydro-4H-pyrazolo[3,4-d]pyrimidin-4-one] registered a 50% inhibitory concentration (IC50) not above 20 nM.

Take `CC1(C)C=C(c2n[nH]c3nc(N4CCC5(CC4)Cc4ccccc4[C@H]5N)[nH]c(=O)c23)c2cnn(C3CC3)c2C1` [Example 152, (S)-6-(1-amino-1,3-dihydrospiro[indene-2,4′-piperidin]-1′-yl)-3-(1-cyclopropyl-6,6-dimethyl-6,7-dihydro-1H-indazol-4-yl)-1,5-dihydro-4H-pyrazolo[3,4-d]pyrimidin-4-one]: the IC50 was 20 to 60 nM.

Take `Cn1cc2c(n1)CC(C)(C)C=C2c1n[nH]c2nc(N3CCC4(CC3)Cc3ccccc3[C@H]4N)[nH]c(=O)c12` [Example 153, (S)-6-(1-amino-1,3-dihydrospiro[indene-2,4′-piperidin]-1′-yl)-3-(2,6,6-trimethyl-6,7-dihydro-2H-indazol-4-yl)-1,5-dihydro-4H-pyrazolo[3,4-d]pyrimidin-4-one]: the IC50 is not above 20 nM.

Compound `CC1(C)C=C(c2n[nH]c3nc(N4CCC5(CC4)Cc4ccccc4[C@H]5N)[nH]c(=O)c23)c2cn(CC(F)(F)F)nc2C1` [Example 154, (S)-6-(1-amino-1,3-dihydrospiro[indene-2,4′-piperidin]-1′-yl)-3-(6,6-dimethyl-2-(2,2,2-trifluoroethyl)-6,7-dihydro-2H-indazol-4-yl)-1,5-dihydro-4H-pyrazolo[3,4-d]pyrimidin-4-one] yielded an IC50 not above 20 nM.

The compound `CC1(C)C=C(c2n[nH]c3nc(N4CCC5(CC4)Cc4ccccc4[C@H]5N)[nH]c(=O)c23)c2cn(C3CC3)nc2C1` [Example 155, (S)-6-(1-amino-1,3-dihydrospiro[indene-2,4′-piperidin]-1′-y1)-3-(2-cyclopropyl-6,6-dimethyl-6,7-dihydro-2H-indazol-4-yl)-1,5-dihydro-4H-pyrazolo[3,4-d]pyrimidin-4-one] came in with an IC50 of 20 to 60 nM.

For `CC1(C)C=C(c2n[nH]c3nc(N4CCC5(CC4)Cc4ccccc4[C@H]5N)[nH]c(=O)c23)c2sc(N)nc2C1` [Example 159, (S)-6-(1-amino-1,3-dihydrospiro[indene-2,4′-piperidin]-1′-yl)-3-(2-amino-5,5-dimethyl-4,5-dihydrobenzo[d]thiazol-7-yl)-1,5-dihydro-4H-pyrazolo[3,4-d]pyrimidin-4-one], the IC50 was 20 to 60 nM.

Regarding `CC1(C)C=C(c2n[nH]c3nc(N4CCC5(CC4)Cc4ccccc4[C@H]5N)[nH]c(=O)c23)c2cc(Br)cnc2C1` [Example 160, (S)-6-(1-amino-1,3-dihydrospiro[indene-2,4′-piperidin]-1′-yl)-3-(3-bromo-7,7-dimethyl-7,8-dihydroquinolin-5-yl)-1,5-dihydro-4H-pyrazolo[3,4-d]pyrimidin-4-one], the IC50 was not above 20 nM.

The compound `CC1(C)C=C(c2n[nH]c3nc(N4CCC5(CC4)Cc4ccccc4[C@H]5N)[nH]c(=O)c23)c2ccc(Cl)nc2C1` [Example 161, (S)-6-(1-amino-1,3-dihydrospiro[indene-2,4′-piperidin]-1′-yl)-3-(2-chloro-7,7-dimethyl-7,8-dihydroquinolin-5-yl)-1,5-dihydro-4H-pyrazolo[3,4-d]pyrimidin-4-one] showed an IC50 not above 20 nM.

Compound `CC1(C)C=C(c2n[nH]c3nc(N4CCC5(CC4)Cc4ccccc4[C@H]5N)[nH]c(=O)c23)c2ccc(C#N)nc2C1` [Example 162, (S)-5-(6-(1-amino-1,3-dihydrospiro[indene-2,4′-piperidin]-1′-yl)-4-oxo-4,5-dihydro-1H-pyrazolo[3,4-d]pyrimidin-3-yl)-7,7-dimethyl-7,8-dihydroquinoline-2-carbonitrile] showed an IC50 not above 20 nM.
